The values below are quoted from earlier work in publication PMC2853223 (ACS chemical biology, 2009).

The subject of this series is DEBS 3. The note with it: mismatched PikAII/DEBS 3 pairing.

For “PiKAII: pikromycin PKS protein PikAII, paired with DEBS 3 in vivo”, the “association and transfer with DEBS 3 in vivo” value is “productive association and transfer”.
